Assay results as given in US20220332764A1, “T CELL EPITOPES OF HCMV AND USES OF THEREOF” (EBERHARD KARLS UNIVERSITÄT TÜBINGEN, priority 2019, published 2022).
Like-named read-outs stand apart in the source and are kept apart here.

What was measured:
[1] = system: PBMCs of healthy HCMV-seropositive donors; test: IFNγ ELISpot after 12 day stimulation (memory T-cell response); format: cell-based, human; conditions: for % Positive donors (after 12 days of stimulation): IFNγ ELISpot, HLA-matched seropositive donors; for ELISpot response rate (12 d stim.): 12-day amplification with IL-2 in vitro; for Positive donors as tested: positive / tested HLA-matched seropositive donors, positive: >10 spots/well and at least 3-fold negative control
Text: (§1) PHA was used as positive control.

[2] = system: PBMCs of healthy HCMV-seropositive donors; test: ex vivo IFNγ ELISpot without prestimulation; format: cell-based, human; conditions: for % Positive donors (ex vivo): IFNγ ELISpot ex vivo, donors previously tested positive; for ELISpot response rate (ex vivo): donors positively tested in ELISpots with 12d stimulation
Text: as §1

[3] = system: CD8+ / CD4+ T cells of donor PBMCs; test: Intracellular cytokine staining (ICS; IFNγ, TNFα, CD107a); format: cell-based, human; conditions: for Intracellular staining: responding T-cell subset; for Intracellular cytokine staining: responding T-cell subset after peptide stimulation
Text: PHA was used as positive control. […] (Cytofix/Cytoperm, BD Biosciences).

HLA = conditions: Table 2, preferred dominant epitopes
[4] = system: CD8+ T cells of HLA-matched healthy donors; conditions: for Tetramer-staining: after 12 day amplification

In the case of “GLFAVENFL (listed as Human cytomegalovirus) [SEQ ID NO: 4]”, the “% Positive donors (after 12 days of stimulation)” value [1] is reported as 53.9%, the “ELISpot response rate (12 d stim.)” value ([1]; Tested HLA A*02:01) is reported as 53.9 and the “Positive donors as tested” value [1] is reported as 7/13. For the same sequence, the “% Positive donors (ex vivo)” value [2] was 0.0%, the “ELISpot response rate (ex vivo)” value ([2]; Tested HLA A*02:01) was 0.0 and the Intracellular staining ([3]; Tested HLA A*02:01) was “CD4”. The Intracellular cytokine staining [3] was “CD4” and the “actual HLA restriction” value (HLA) was “Class II”.
With “NLVPMVATV (listed as Human cytomegalovirus) [SEQ ID NO: 101]” the “ELISpot response rate (12 d stim.)” value ([1]; Tested HLA A*02:01) was 75.0, the “ELISpot response rate (ex vivo)” value ([2]; Tested HLA A*02:01) was 100.0 and the Intracellular staining ([3]; Tested HLA A*02:01) was “CD8”. The Tetramer staining ([4]; Tested HLA A*02:01) was “positive”.
With “NTDFRVLELY (listed as Human cytomegalovirus) [SEQ ID NO: 55]” the “% Positive donors (after 12 days of stimulation)” value [1] was 56.3%, the “ELISpot response rate (12 d stim.)” value ([1]; Tested HLA A*01:01) was 56.3 and the “Positive donors as tested” value [1] was 9/16. The “% Positive donors (ex vivo)” value [2] was 0.0%, the “ELISpot response rate (ex vivo)” value ([2]; Tested HLA A*01:01) was 0.0 and the Intracellular staining ([3]; Tested HLA A*01:01) was “CD8”. For the same sequence, the Intracellular cytokine staining [3] was “CD8”, the Tetramer staining ([4]; Tested HLA A*01:01) was “positive” and the Tetramer-staining [4] was “Positive”.
For “RTDPATLTAY (listed as Human cytomegalovirus) [SEQ ID NO: 53]”, the “% Positive donors (after 12 days of stimulation)” value [1] was 82.6%, the “ELISpot response rate (12 d stim.)” value ([1]; Tested HLA A*01:01) was 82.6 and the “Positive donors as tested” value [1] was 19/23. For the same sequence, the “% Positive donors (ex vivo)” value [2] was 66.7%, the “ELISpot response rate (ex vivo)” value ([2]; Tested HLA A*01:01) was 66.7 and the Intracellular staining ([3]; Tested HLA A*01:01) was “CD8”. The Intracellular cytokine staining [3] was “CD8”, the Tetramer staining ([4]; Tested HLA A*01:01) was “positive” and the Tetramer-staining [4] was “Positive”.
“RVKNRPIYR (listed as Human cytomegalovirus) [SEQ ID NO: 68]” was tested, and the “% Positive donors (after 12 days of stimulation)” value [1] was 60.9%, the “ELISpot response rate (12 d stim.)” value ([1]; Tested HLA A*03:01) was 60.9 and the “Positive donors as tested” value [1] was 14/23. The “% Positive donors (ex vivo)” value [2] was 33.3%, the “ELISpot response rate (ex vivo)” value ([2]; Tested HLA A*03:01) was 33.3 and the Intracellular staining ([3]; Tested HLA A*03:01) was “CD8”. The Intracellular cytokine staining [3] was “CD8”, the Tetramer staining ([4]; Tested HLA A*03:01) was “positive” and the Tetramer-staining [4] was “Positive”.
For “SENGNLQVTY (listed as Human cytomegalovirus) [SEQ ID NO: 40]”, the “% Positive donors (after 12 days of stimulation)” value [1] was 83.9%, the “ELISpot response rate (12 d stim.)” value ([1]; Tested HLA B*44:02) was 83.9 and the “Positive donors as tested” value [1] was 26/31. The “% Positive donors (ex vivo)” value [2] was 62.5%, the “ELISpot response rate (ex vivo)” value ([2]; Tested HLA B*44:02) was 62.5 and the Intracellular staining ([3]; Tested HLA B*44:02) was “CD8”. For the same sequence, the Intracellular cytokine staining [3] was “CD8”, the Tetramer staining ([4]; Tested HLA B*44:02) was “positive” and the Tetramer-staining [4] was “Positive”.
In the case of “SESEFIVRY (listed as Human cytomegalovirus) [SEQ ID NO: 43]”, the “% Positive donors (after 12 days of stimulation)” value [1] is reported as 40.0%, the “Positive donors as tested” value [1] is reported as 8/20 and the “% Positive donors (ex vivo)” value [2] is reported as 37.5%. The Intracellular cytokine staining [3] was “CD8” and the Tetramer-staining [4] was “Positive”.
For “SPRDAWIVL (listed as Human cytomegalovirus) [SEQ ID NO: 26]”, the “% Positive donors (after 12 days of stimulation)” value [1] was 68.2%, the “ELISpot response rate (12 d stim.)” value ([1]; Tested HLA B*07:02) was 68.2 and the “Positive donors as tested” value [1] was 15/22. The “% Positive donors (ex vivo)” value [2] was 20.0%, the “ELISpot response rate (ex vivo)” value ([2]; Tested HLA B*07:02) was 20.0 and the Intracellular staining ([3]; Tested HLA B*07:02) was “CD8”. For the same sequence, the Intracellular cytokine staining [3] was “CD8”, the Tetramer staining ([4]; Tested HLA B*07:02) was “positive” and the Tetramer-staining [4] was “Positive”.
With “SPRHLYISL (listed as Human cytomegalovirus) [SEQ ID NO: 29]” the “% Positive donors (after 12 days of stimulation)” value [1] was 50.0%, the “ELISpot response rate (12 d stim.)” value ([1]; Tested HLA B*07:02) was 50.0 and the “Positive donors as tested” value [1] was 11/22. For the same sequence, the “% Positive donors (ex vivo)” value [2] was 0.0%, the “ELISpot response rate (ex vivo)” value ([2]; Tested HLA B*07:02) was 0.0 and the Intracellular cytokine staining [3] was “CD4/CD8”. The Tetramer staining ([4]; Tested HLA B*07:02) was “positive” and the Tetramer-staining [4] was “Positive”.
For “SPSRDRFVQL (listed as Human cytomegalovirus) [SEQ ID NO: 27]”, the “% Positive donors (after 12 days of stimulation)” value [1] was 66.7%, the “ELISpot response rate (12 d stim.)” value ([1]; Tested HLA B*07:02) was 66.7 and the “Positive donors as tested” value [1] was 14/21. For the same sequence, the “% Positive donors (ex vivo)” value [2] was 33.3%, the “ELISpot response rate (ex vivo)” value ([2]; Tested HLA B*07:02) was 33.3 and the Intracellular cytokine staining [3] was “Nega-”. The Tetramer staining ([4]; Tested HLA B*07:02) was “positive” and the Tetramer-staining [4] was “Positive”.
With “TLIVNLVEV (listed as Human cytomegalovirus) [SEQ ID NO: 3]” the “% Positive donors (after 12 days of stimulation)” value [1] was 55.0%, the “ELISpot response rate (12 d stim.)” value ([1]; Tested HLA A*02:01) was 55.0 and the “Positive donors as tested” value [1] was 11/20. For the same sequence, the “% Positive donors (ex vivo)” value [2] was 25.0%, the “ELISpot response rate (ex vivo)” value ([2]; Tested HLA A*02:01) was 25.0 and the Intracellular staining ([3]; Tested HLA A*02:01) was “CD8”. For the same sequence, the Intracellular cytokine staining [3] was “CD8”, the Tetramer staining ([4]; Tested HLA A*02:01) was “positive” and the Tetramer-staining [4] was “Positive”.
“TPRVTGGGAM (listed as Human cytomegalovirus) [SEQ ID NO: 25]” was tested, and the “% Positive donors (after 12 days of stimulation)” value [1] was 81.6%, the “ELISpot response rate (12 d stim.)” value ([1]; Tested HLA B*07:02) was 81.6 and the “Positive donors as tested” value [1] was 31/38. The “% Positive donors (ex vivo)” value [2] was 100.0%, the “ELISpot response rate (ex vivo)” value ([2]; Tested HLA B*07:02) was 100.0 and the Intracellular staining ([3]; Tested HLA B*07:02) was “CD8”. The Intracellular cytokine staining [3] was “CD8”, the Tetramer staining ([4]; Tested HLA B*07:02) was “positive” and the Tetramer-staining [4] was “Positive”.
For “YADPFFLKY (listed as Human cytomegalovirus) [SEQ ID NO: 51]”, the “% Positive donors (after 12 days of stimulation)” value [1] was 100.0%, the “ELISpot response rate (12 d stim.)” value ([1]; Tested HLA A*01:01) was 100.0 and the “Positive donors as tested” value [1] was 15/15. The “% Positive donors (ex vivo)” value [2] was 90.9%, the “ELISpot response rate (ex vivo)” value ([2]; Tested HLA A*01:01) was 90.9 and the Intracellular staining ([3]; Tested HLA A*01:01) was “CD8”. For the same sequence, the Intracellular cytokine staining [3] was “CD8”, the Tetramer staining ([4]; Tested HLA A*01:01) was “positive” and the Tetramer-staining [4] was “Positive”.
“YLVRRPMTI (listed as Human cytomegalovirus) [SEQ ID NO: 80]” was tested, and the “% Positive donors (after 12 days of stimulation)” value [1] was 50.0%, the “ELISpot response rate (12 d stim.)” value ([1]; Tested HLA B*08:01) was 50.0 and the “Positive donors as tested” value [1] was 11/22. For the same sequence, the “% Positive donors (ex vivo)” value [2] was 33.3%, the “ELISpot response rate (ex vivo)” value ([2]; Tested HLA B*08:01) was 33.3 and the Intracellular cytokine staining [3] was “Nega-”. For the same sequence, the Tetramer staining ([4]; Tested HLA B*08:01) was “positive” and the Tetramer-staining [4] was “Positive”.
With “YPRPPGSGL (listed as Human cytomegalovirus) [SEQ ID NO: 24]” the “% Positive donors (after 12 days of stimulation)” value [1] was 86.4%, the “ELISpot response rate (12 d stim.)” value ([1]; Tested HLA B*07:02) was 86.4 and the “Positive donors as tested” value [1] was 19/22. The “% Positive donors (ex vivo)” value [2] was 25.0%, the “ELISpot response rate (ex vivo)” value ([2]; Tested HLA B*07:02) was 25.0 and the Intracellular cytokine staining [3] was “Nega-”. For the same sequence, the Tetramer staining ([4]; Tested HLA B*07:02) was “positive” and the Tetramer-staining [4] was “Positive”.
